According to patent publication US20060014709A1, “Drug or cosmetic” (priority 2002, published 2006):
Values joined by “and” are separate entries in the source; they are usually repeats but may differ in a detail not shown here. Equal values may be shown once. “Also recorded” adds a separate entry of the source. Marks after values point to notes of the source that are not given here.

What was measured:
Assay type in all cases: in vivo
[1] = tested on: male SD rats, obstruction-released kidney (glomerular lesions and tubulointerstitial lesions); test: Obstruction release model after complete obstruction of unilateral ureter for 14 days (Example 2-1); parameters: key to Tubulointerstitial lesions: level of lesions (quality): summed lesion score: + = 1, ++ = 2, +++ = 3 points; conditions: rat; for Regeneration CD11b^−CD2^+ macrophages to tubulointerstitial lesions, Determination: increase + / Coincidence of two regeneration macrophages being positive / Glomerular lesions: proportion of lesioned glomeruli (%) / Number of regeneration CD11b^+CD2^+ macrophages to glomerular lesions: number of positive cells per glomerulus / Number of regeneration CD11b^−CD2^+ macrophages to tubulointerstitial lesions: number of positive cells (CD11b) in five fields of 200× magnification / Regeneration CD11b^+CD2^+ macrophages to glomerular lesions, Determination: increase = + / Serum creatinine / Tubulointerstitial lesions: level of lesions (quality): 30 mg/kg subcutaneously every day for 21 days, one value per animal
From the text: (§1) That is, the rat was laparotomized under anesthesia with ether and left ureter was ligated with 7-0 Nylon at the height of the margin of lower pole of kidney to close the abdomen. On the 14th day after obstruction, the obstruction was released and urinary passage was reconstructed using a cuff. Thus, after 14 days, the part of ligated obstructed ureter was resected, a polyethylene tube of 25 gages (manufactured by Nippon Sherwood) was used as a cuff and inserted into and retained at the lumen from the cut end of the lower normal ureter, then the cuff was also retained in the expanded upper ureter and each of them was ligated and fixed by 7-0 Nylon to reconstruct the urinary passage. At the same time, the right kidney at the opposite side was excised. After the release of the obstruction, body weight was measured, blood was drawn on the 2nd day, 5th day and 7th day from the release to measure serum creatinine, then the rat was killed under anesthesia and the left obstruction-released kidney was excised.
With regard to the excised kidney, there were carried out measurements of weight of the kidney, creatinine concentration mg/dl in plasma as an indicator of kidney function and pathological test for the kidney, and also leukocyte cells which infiltrate the obstruction-released kidney were immunopathologically studied with cell surface markers for ED1 macrophages, CD11b (ED8) positive macrophages and CD5 positive lymphocytes. A number of positive cells was expressed as a number of cells per glomerulus from measured numbers of positive cells in five glomeruli, and for a number in tubulointerstitial tissue, it was expressed by the total number of cells existing in five fields of 200×magnification. For macrophages, a number of CD11b positive cells existing in glomerulus was considered as a number of CD11b^+CD2^+ macrophages and a case of existing not less than one positive cell per glomerulus was considered as positive (+). In the tubulointerstitial tissue, a number of […] 60 CD11b positive cells was considered as positive (+), or a case of CD11b^−CD2^+ macrophages dominantly increasing. Scoring of evaluation of tubulointerstitial lesions was as follows: + gets 1-point as a light lesion; ++ gets 2-point as a moderate lesion; and +++ gets3-point as a severe lesion. For glomerular lesions, when a proportion of lesioned glomeruli was decreased to not more than 40%, and for tubulointerstitial lesions, when a score of the lesions was not more than 4, it was considered as improved.
For glomerular lesions, by counting glomeruli causing thickening of Bowman's capsule wall and glomerular hyalinosis, a proportion of glomeruli having lesions was calculated. For tubulointerstitial lesions, by qualifying hyperplasia of tubular basement membrane and interstitial fibrosis, levels of the lesions were represented.
(§2) An in vivo biological test was carried out for the γ-lactone derivative according to the present invention using this model. Bulk powder of a test compound was dissolved in sterile physiological saline together with gum arabic, and concentrations of the test compound and gum arabic were adjusted to 30 mg/mL and 5% respectively. The preparation was administered orally or subcutaneously injected at the dose of 30 mg/kg or 3 mg/kg every day. The administration was conducted for the total 21 days of the obstructed period for 14 days and after release of the obstruction for 7 days.
For test groups, a group administered single compound group, a group administered both compound group and a control group administered solution of gum arabic were set up and compared for renal functions and morphological evaluations, as well as numbers of ED1, CD5, CD11b positive cells by means of immunopathology.

[2] = tested on: male SD rats, obstruction-released kidney (glomerular lesions and tubulointerstitial lesions); test: Obstruction release model after complete obstruction of unilateral ureter for 14 days (Example 2-2); parameters: key to Tubulointerstitial lesions: level of lesions: summed lesion score; + = 1, ++ = 2, +++ = 3; ≤6.5 improved; conditions: rat, 30 mg/kg subcutaneously
From the text: as §1, §2
For cell surface markers of leukocyte cells which infiltrate the obstruction-released kidney, ED1, CD11b (ED8), CD5 and CD2 were used. […] For CD5^+, a number of not less than 20 per glomerulus was considered as positive. For glomerular lesions, which was characterized by Bowman's capsule wall, glomerular hyalinosis, dilation of urinary space pole and hypertrophy of parietal cells, 50 glomeruli were evaluated to obtain a proportion of pathologic glomeruli. For tubulointerstitial lesions, levels of the lesions were represented by qualifying hyperplasia of tubular basement membrane, tubular enlargement and atrophy and interstitial fibrosis. Scoring was as follows: + gets 1-point as a light lesion; ++ gets 2-point as a moderate lesion; and +++ gets 3-point as a severe lesion. Levels of cell infiltration were evaluated qualitatively according to the above three-point scale. For glomerular lesions, when a proportion of lesioned glomeruli was decreased to not more than 20%, and for tubulointerstitial lesions, when a score of the lesions was not more than 6.5, it was considered as improved.
Numbers of cells positive for CD11b (ED8), CD2 and CD5 were compared by means of immunopathology, and CD11b^+CD2^+ macrophages were considered as regeneration-promoting macrophages in glomeruli and CD11b^−CD2^+CD5+ macrophages were considered as regeneration-promoting macrophages to tubulointerstitial lesions, and herewith, it was estimated whether each cell group is quantitatively dominant or not.

[3] = tested on: male SDT rats (spontaneously type II diabetes model), complete skin-excised wounds; test: Complete skin-excised model, wound healing; conditions: SDT rat, 10 mg/kg subcutaneously every day
From the text: Using male SDT rats of 28-30 weeks age, which were a spontaneously type II diabetes model, promoting effect on repair and regeneration in wound healing after complete skin excision were examined according to a partially modified method of Breitbout AS et al. (Ann Plast Surg 1999, 43: 632). That is, an animal was shaved at its back under anesthesia with ether, and skin in 2×2 cm size was excised together with panniculus carnosus in same size to make two complete skin-excised wounds per animal.
Healings of the wounds were observed on the 1st day, 4th day, 7th day, 12h day, 15th day, 21st day and 28th day from the operation. An area of the wounds was obtained as the product of the average vertical length and the average horizontal length which were measured along with a direction of the longest part in the wound.
A test compound was dissolved in sterile physiological saline together with gum arabic. Concentrations of the test compound and gum arabic were adjusted to 30 mg/mL and 5% respectively. The preparation was subcutaneously injected at the dose of 10 mg/kg every day. The administration was started on 6 days before the operation and continued to 28 days after the operation.

O=C1CCC(F)(C(=O)OCc2ccccc2)O1 (stereo not shown) [compound (II-2), 2-fluoro-5-oxotetrahydrofuran-2-carboxylic acid benzyl ester]
cases with increased regeneration-promoting CD11b^+CD2^+ macrophages to glomerular lesions ([1]; 30 mg/kg subcutaneously): Regeneration-promoting macrophages were increased on both lesions | cases with increased regeneration-promoting CD11b^−CD2^+ macrophages to tubulointerstitial lesions ([1]; 30 mg/kg subcutaneously): Regeneration-promoting macrophages were increased on both lesions | Regeneration CD11b^−CD2^+ macrophages to tubulointerstitial lesions, Determination: increase + [1]: + (a number of not more than 60 CD11b positive cells was considered as positive (+)) | Coincidence of two regeneration macrophages being positive ([1]; 30 mg/kg): Not coincident; also recorded: Coincident | Glomerular lesions: proportion of lesioned glomeruli (%) ([1]; 30 mg/kg): 32% and 28% and 19% and 18% | Number of regeneration CD11b^+CD2^+ macrophages to glomerular lesions: number of positive cells per glomerulus ([1]; 30 mg/kg): 0.7 cells per glomerulus and 1.7 cells per glomerulus and 2.3 cells per glomerulus and 1.4 cells per glomerulus | Number of regeneration CD11b^−CD2^+ macrophages to tubulointerstitial lesions: number of positive cells (CD11b) in five fields of 200× magnification ([1]; 30 mg/kg): 33 cells in five fields of 200× m and 35 cells in five fields of 200× m and 27 cells in five fields of 200× m and 16 cells in five fields of 200× m | Regeneration CD11b^+CD2^+ macrophages to glomerular lesions, Determination: increase = + ([1]; 30 mg/kg): + (a case of existing not less than one positive cell per glomerulus was considered as positive (+)) | Serum creatinine ([1]; 30 mg/kg): 2.0 mg/dl (2×) and 2.5 mg/dl and 2.3 mg/dl | Tubulointerstitial lesions: level of lesions (quality) ([1]; 30 mg/kg): 4.5 (2×) and 6.5 (2×)

O=C1OC(Cl)(C(=O)OCc2ccccc2)c2ccccc21 (stereo not shown) [compound (I-3), 1-chloro-3-oxo-1,3-dihydroisobenzofuran-1-carboxylic acid benzyl ester]
cases in which regeneration-promoting CD11b^+CD2^+ macrophages were predominant in glomeruli [2]: three of four cases | cases in which regeneration-promoting CD11b^−CD2^+CD5+ macrophages were predominant in tubulointerstitial lesions [2]: three of four cases | difference in serum creatinine [2]: no difference | pathological improvement of glomerular lesions (cases) [2]: all four cases | pathological improvement of tubulointerstitial lesions (cases) [2]: two of four cases | Coincidence of two regeneration macrophages being positive ([2]; one value per animal, 30 mg/kg): Coincident | Degree of cell infiltration ([2]; one value per animal, 30 mg/kg): + and +++ | Number of regeneration CD11b^+CD2^+ macrophages to glomerular lesions: number of positive cells per glomerulus CD11b^+CD2^+ ([2]; one value per animal, 30 mg/kg): 4.3 cells per glomerulus and 1.8 cells per glomerulus (2×) and 0.5 cells per glomerulus | Number of regeneration CD11b^−CD2^+CD5^+ macrophages to tubulointerstitial lesions: number of positive cells in five fields of 200× magnification, CD5^+ ([2]; one value per animal, 30 mg/kg): 77 cells in five fields of 200× m and 25 cells in five fields of 200× m and 60 cells in five fields of 200× m and 20 cells in five fields of 200× m | Number of regeneration CD11b^−CD2^+CD5^+ macrophages to tubulointerstitial lesions: number of positive cells in five fields of 200× magnification, CD11b^+ ([2]; one value per animal, 30 mg/kg): 62 cells in five fields of 200× m and 53 cells in five fields of 200× m and 14 cells in five fields of 200× m and 22 cells in five fields of 200× m | Regeneration macrophages to glomerular lesions, Determination Increase + ([2]; one value per animal, 30 mg/kg): + (a case of existing not less than one positive cell per glomerulus was considered as positive (+)) | Serum creatinine ([2]; one value per animal, 30 mg/kg): 2.8 mg/dL and 1.4 mg/dL and 2.1 mg/dL and 1.7 mg/dL | Tubulointerstitial lesions: level of lesions ([2]; one value per animal, 30 mg/kg): 6.5 and 3.5 and 7.0 and 8.5 | Glomerular lesions: proportion of lesioned glomeruli (%) ([2]; one value per animal, 50 glomeruli evaluated): <1% | Regeneration CD11b^−CD2^+CD5^+ macrophages to tubulointerstitial lesions, Determination Increase + ([2]; one value per animal, CD11b^+ not more than 60 and CD5^+ not less than 20, 30 mg/kg): + (For CD5^+, a number of not less than 20 per glomerulus was considered as positive)

C[C@@H](OC(=O)[C@]1(Oc2ccc(F)cc2)CCC(=O)O1)c1ccc2ccccc2c1 [compound (I-1), (R)-1-naphthalen-2-ylethyl (S)-2-(4-fluorophenoxy)-5-oxotetrahydrofuran-2-carboxylate]
cases with increased regeneration-promoting CD11b^+CD2^+ macrophages to glomerular lesions ([1]; 30 mg/kg subcutaneously): two of four cases | cases with increased regeneration-promoting CD11b^−CD2^+ macrophages to tubulointerstitial lesions ([1]; 30 mg/kg subcutaneously): three of four cases | difference in serum creatinine ([1]; 30 mg/kg subcutaneously): no difference | pathological improvement of glomerular lesions (cases) ([1]; 30 mg/kg subcutaneously): no glomerular lesion was improved | pathological improvement of tubulointerstitial lesions (cases) ([1]; 30 mg/kg subcutaneously): three of four cases | Coincidence of two regeneration macrophages being positive ([1]; 30 mg/kg): Not coincident; also recorded: Coincident | Glomerular lesions: proportion of lesioned glomeruli (%) ([1]; 30 mg/kg): 29% and 39% and 57% and 67% | Number of regeneration CD11b^+CD2^+ macrophages to glomerular lesions: number of positive cells per glomerulus ([1]; 30 mg/kg): 0.5 cells per glomerulus and 2.0 cells per glomerulus and 0.0 cells per glomerulus and 1.3 cells per glomerulus | Number of regeneration CD11b^−CD2^+ macrophages to tubulointerstitial lesions: number of positive cells (CD11b) in five fields of 200× magnification ([1]; 30 mg/kg): 24 cells in five fields of 200× m and 140 cells in five fields of 200× m and 59 cells in five fields of 200× m and 41 cells in five fields of 200× m | Regeneration CD11b^+CD2^+ macrophages to glomerular lesions, Determination: increase = + ([1]; 30 mg/kg): + (a case of existing not less than one positive cell per glomerulus was considered as positive (+)) | Regeneration CD11b^−CD2^+ macrophages to tubulointerstitial lesions, Determination: increase + ([1]; 30 mg/kg): + (a number of not more than 60 CD11b positive cells was considered as positive (+)) | Serum creatinine ([1]; 30 mg/kg): 3.0 mg/dL and 2.7 mg/dL and 2.8 mg/dL and 2.2 mg/dL | Tubulointerstitial lesions: level of lesions (quality) ([1]; 30 mg/kg): 7.0 and 4.0 and 3.0 (2×) | Excised wound area (cm^2) ([3]; 1st day after complete skin excision): 3.38 cm^2 | Excised wound area (cm^2) ([3]; 4th day after complete skin excision): 2.10 cm^2 | Excised wound area (cm^2) ([3]; 7th day after complete skin excision): 1.45* cm^2 | Excised wound area (cm^2) ([3]; 12th day after complete skin excision): 0.56* cm^2 | Excised wound area (cm^2) ([3]; 15th day after complete skin excision): 0.51 cm^2 | Excised wound area (cm^2) ([3]; 21st day after complete skin excision): 0.40 cm^2 | Crust formation/number of wound ([3]; 21st day after the operation): 0/8 | crust formation on the surface of repaired wounds (in words) ([3]; 28th day): no crust formation occurred | Excised wound area (cm^2) ([3]; 28th day after complete skin excision): 0.18* cm^2 | Crust formation/number of wound ([3]; 28th day after the operation): 0/8 | promoting effect on wound healing (in words) ([3]; versus the control group, 10 mg/kg): more promoting effect on wound healing at 7th day to 12th day after the operation; also recorded: in 28th day of healing period, it showed promoting effect on wound healing; also recorded: promoting effect on healing of dermis and epidermis including panniculus carnosus
